The values below come from publication PMC4140816, “Differential Sensitivity of Src-Family Kinases to Activation by SH3 Domain Displacement” (PLoS ONE, 2014).

One experiment concerns the target Lyn-YEEI (Homo sapiens, UniProt P07948, Q509E/Q510E/Q511I). As to the kind of experiment: Km determination, ADP Quest assay, Lyn-YEEI. Format: biochemical. The note with it: pH 7.4, 25°C, 250 ng/well kinase, mean ±S.E.
The target of a further experiment is Hck-YEEI (Homo sapiens, UniProt P08631, Q523E/Q524E/Q525I). The experiment is described as follows: Km determination, ADP Quest assay, Hck-YEEI. Format: biochemical. The note with it: pH 7.4, 25°C, 150 ng/well kinase, mean ±S.E.
Hck-YEEI, sequence (P08631 78-526 Q523E/Q524E/Q525I limits assumed): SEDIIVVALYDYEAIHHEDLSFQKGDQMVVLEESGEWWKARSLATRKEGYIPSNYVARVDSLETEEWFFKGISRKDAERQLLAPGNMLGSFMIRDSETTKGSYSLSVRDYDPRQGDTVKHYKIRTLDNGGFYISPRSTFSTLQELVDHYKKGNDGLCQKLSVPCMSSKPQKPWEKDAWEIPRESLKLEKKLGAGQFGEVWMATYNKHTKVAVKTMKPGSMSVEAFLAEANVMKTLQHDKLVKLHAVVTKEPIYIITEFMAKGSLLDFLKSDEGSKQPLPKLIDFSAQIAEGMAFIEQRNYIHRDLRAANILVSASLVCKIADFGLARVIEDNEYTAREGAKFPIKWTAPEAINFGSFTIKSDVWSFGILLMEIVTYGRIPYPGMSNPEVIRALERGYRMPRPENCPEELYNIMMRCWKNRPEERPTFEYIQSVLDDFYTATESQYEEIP
The target of another experiment is Fyn-YEEI (Homo sapiens, UniProt P06241). As to the kind of experiment: Km determination, ADP Quest assay, Fyn-YEEI. Format: biochemical. The following applies: pH 7.4, 25°C, 150 ng/well kinase, mean ±S.E.
Fyn-YEEI, sequence (P06241 with tags, fused parts or gaps): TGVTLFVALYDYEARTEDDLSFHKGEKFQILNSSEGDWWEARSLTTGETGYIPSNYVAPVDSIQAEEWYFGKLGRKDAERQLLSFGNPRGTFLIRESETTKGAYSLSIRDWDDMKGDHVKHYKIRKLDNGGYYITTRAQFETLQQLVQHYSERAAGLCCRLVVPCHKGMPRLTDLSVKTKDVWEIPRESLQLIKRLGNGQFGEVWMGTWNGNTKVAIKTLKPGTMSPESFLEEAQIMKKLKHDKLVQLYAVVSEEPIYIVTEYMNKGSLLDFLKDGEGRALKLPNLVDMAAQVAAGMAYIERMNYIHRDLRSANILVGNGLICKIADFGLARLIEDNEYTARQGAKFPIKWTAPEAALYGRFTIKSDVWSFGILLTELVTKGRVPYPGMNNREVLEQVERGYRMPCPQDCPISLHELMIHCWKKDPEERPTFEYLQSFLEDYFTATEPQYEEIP
A further experiment has as its target Lyn SH3 domain (Homo sapiens, UniProt P07948). The experiment is described as follows: SPR, VSL12 binding to Lyn SH3. The following applies: biotinylated VSL12 on SA chip, 25°C, duplicate runs. On the procedure:
The biotinylated peptide was immobilized to 80 Response Units (RU) on the surface of a streptavidin (SA) biosensor chip. The recombinant purified Src SH3 domain proteins were flowed past the peptide over the concentration ranges shown. Association was measured for 180 s, followed by a 300 s dissociation phase.
The C-terminus of each construct was modified by the addition of the sequence […] as encoded by the XhoI site and the His6 tag in the vector. For expression of the SH3 and SH2 domains, E. coli strain Rosetta 2(DE3)pLysS (EMD Millipore) was transformed with each plasmid and cultures were grown at 37°C until the OD600 reached 0.8–1.0. Protein expression was induced with 0.4 mM isopropyl -D-thiogalactopyranoside (IPTG) for 4 h at 25°C. The isolated KDs were expressed as previously described by Seeliger, et al. For purification, cell pellets were resuspended in ion-exchange start buffer (20 mM Tris-HCl, pH 8.5, 5 mM -mercaptoethanol, 10% glycerol), sonicated, and clarified by centrifugation. […] Recombinant purified protein concentrations were quantified by Bradford assay using the BioRad Protein Assay Dye Reagent Concentrate and purified BSA as a reference standard (Pierce).
SPR experiments were performed using a Biacore 3000 Instrument (GE Healthcare) on a streptavidin (SA) biosensor chip. […] Association was measured for 180 s, followed by 300 s of dissociation in HBS-EP running buffer. […]

In the next experiment the target is Src-YEEI (Homo sapiens, UniProt P12931). Format: biochemical. The following applies: pH 7.4; read-out: Km YIYGSFK.
[1] abbreviates: peptide substrate at Km, n = 3, read-out: Km ATP.
Where [2] appears, read: ATP held constant at 200 (µM), n = 4, read-out: Km YIYGSFK.

“And” between values parts separate entries of the source, which are not always exact repeats. Identical values can stand only once. Like-named read-outs stand apart in the source and are kept apart here.

Lyn SH3 domain, sequence (P07948 63-123 limits assumed): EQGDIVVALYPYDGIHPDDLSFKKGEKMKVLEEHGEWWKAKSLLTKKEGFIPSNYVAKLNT
Lyn-YEEI, sequence (P07948 63-512 Q509E/Q510E/Q511I limits assumed): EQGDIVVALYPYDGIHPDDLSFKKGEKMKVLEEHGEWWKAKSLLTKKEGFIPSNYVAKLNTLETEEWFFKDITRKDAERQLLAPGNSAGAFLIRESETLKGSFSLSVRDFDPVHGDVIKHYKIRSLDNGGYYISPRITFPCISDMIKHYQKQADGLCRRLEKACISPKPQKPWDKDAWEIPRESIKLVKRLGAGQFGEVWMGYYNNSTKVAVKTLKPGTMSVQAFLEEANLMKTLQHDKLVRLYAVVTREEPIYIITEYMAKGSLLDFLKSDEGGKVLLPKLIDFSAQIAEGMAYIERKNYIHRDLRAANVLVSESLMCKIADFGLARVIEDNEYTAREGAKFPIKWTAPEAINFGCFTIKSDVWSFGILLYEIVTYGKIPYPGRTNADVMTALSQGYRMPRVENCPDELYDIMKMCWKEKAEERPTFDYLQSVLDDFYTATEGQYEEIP

As for `Nc1ncnc2c1ncn2[C@@H]1O[C@H](COP(=O)(O)OP(=O)(O)OP(=O)(O)O)[C@@H](O)[C@H]1O` [ATP], the results for the Km on Lyn-YEEI (setting [1]), on Hck-YEEI (setting [1]) and at Fyn-YEEI (setting [1]) were 31.1 ± 9.7 µM, 55.8 ± 18.5 µM and 49.7 ± 8.2 µM, respectively.

Regarding `CC(C)C[C@H](NC(=O)[C@H](CO)NC(=O)[C@@H](N)C(C)C)C(=O)N[C@@H](C)C(=O)N[C@@H](CCCN=C(N)N)C(=O)N[C@@H](CCCN=C(N)N)C(=O)N1CCC[C@H]1C(=O)N[C@@H](CC(C)C)C(=O)N1CCC[C@H]1C(=O)N1CCC[C@H]1C(=O)N[C@@H](CC(C)C)C(=O)N1CCC[C@H]1C(=O)O` [VSL12], the Kd at Lyn SH3 domain (31.25-250 nM SH3, 1:1 Langmuir fit, χ^2 1.850, read-out: Kinetic KD) is 0.647 µM; on Lyn SH3 domain (31.25-250 nM SH3, steady state model, χ^2 0.225, read-out: Steady-State KD), 0.562 µM.

Turning to “YIYGSFK [SFK substrate peptide; Anaspec]”, the Km on Src-YEEI was 159 µM; at Lyn-YEEI (setting [2]), 83.2 ± 4.9 µM; on Hck-YEEI (setting [2]), 83.8 ± 12.5 µM; on Fyn-YEEI (setting [2]), 70 µM and 69.6 µM.

For orientation: Km means the concentration of substrate that gives half-maximal velocity. As usually defined, the Kd is the equilibrium constant for the complex coming apart.
